In ChEMBL document CHEMBL4414598, “Trifluorinated Pyrimidine-Based A2B Antagonists: Optimization and Evidence of Stereospecific Recognition” (J Med Chem, 2019):

Experiments:
[1] = biological target: T1, Adenosine receptor A1 (Homo sapiens) (UniProt P30542); assay: Displacement of [3H]DPCPX from human recombinant A1 receptor expressed in CHOA1 cell membranes at 1 uM incubated for 60 mins by radioligand binding competition assay relative to control
T1 sequence (whole entry): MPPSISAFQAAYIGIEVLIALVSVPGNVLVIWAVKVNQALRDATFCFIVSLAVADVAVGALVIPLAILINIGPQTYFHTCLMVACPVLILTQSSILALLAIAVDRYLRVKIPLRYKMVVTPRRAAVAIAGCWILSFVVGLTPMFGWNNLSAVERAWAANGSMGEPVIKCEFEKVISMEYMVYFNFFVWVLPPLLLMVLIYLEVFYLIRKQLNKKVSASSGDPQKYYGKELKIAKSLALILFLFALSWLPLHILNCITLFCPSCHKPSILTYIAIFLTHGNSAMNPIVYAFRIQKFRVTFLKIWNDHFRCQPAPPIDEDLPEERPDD

[2] = biological target: T2, Adenosine receptor A3 (Homo sapiens) (UniProt P0DMS8); assay: Displacement of [3H]NECA from human A3 receptor expressed in human HeLa cell membranes at 1 uM incubated for 180 mins by radioligand binding competition assay relative to control
T2 sequence (whole entry): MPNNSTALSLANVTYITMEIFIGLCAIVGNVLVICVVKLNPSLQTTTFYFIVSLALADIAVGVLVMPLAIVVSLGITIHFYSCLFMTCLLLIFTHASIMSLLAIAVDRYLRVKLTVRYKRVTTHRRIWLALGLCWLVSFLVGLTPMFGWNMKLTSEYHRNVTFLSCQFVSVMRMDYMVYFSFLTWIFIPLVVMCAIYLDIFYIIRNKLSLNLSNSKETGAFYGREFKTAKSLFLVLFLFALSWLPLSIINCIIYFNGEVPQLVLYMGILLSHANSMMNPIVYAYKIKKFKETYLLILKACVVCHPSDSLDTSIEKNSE

Adenosine receptor A2a = Adenosine receptor A2a (Homo sapiens, UniProt P29274); assay: Displacement of [3H]ZM241385 from human recombinant A2A receptor expressed in human HeLa cell membranes at 1 uM incubated for 30 mins by radioligand binding competition assay relative to control
[3] = biological target: T3, Adenosine receptor A2b (Homo sapiens) (UniProt P29275); assay: Displacement of [3H]DPCPX from human recombinant A2B receptor expressed in human HEK293 cell membranes at 1 uM incubated for 30 mins by radioligand binding competition assay relative to control
T3 sequence (whole entry): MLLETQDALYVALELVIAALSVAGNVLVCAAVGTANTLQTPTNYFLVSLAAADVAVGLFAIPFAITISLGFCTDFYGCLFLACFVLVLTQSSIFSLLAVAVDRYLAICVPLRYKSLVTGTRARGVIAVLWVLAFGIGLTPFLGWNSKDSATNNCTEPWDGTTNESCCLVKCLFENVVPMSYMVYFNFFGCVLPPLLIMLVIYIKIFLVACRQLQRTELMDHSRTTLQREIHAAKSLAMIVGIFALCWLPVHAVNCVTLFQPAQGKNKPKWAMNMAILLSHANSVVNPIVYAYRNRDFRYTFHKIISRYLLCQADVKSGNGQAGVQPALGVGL

Adenosine receptor A2a, sequence (P29274 whole entry): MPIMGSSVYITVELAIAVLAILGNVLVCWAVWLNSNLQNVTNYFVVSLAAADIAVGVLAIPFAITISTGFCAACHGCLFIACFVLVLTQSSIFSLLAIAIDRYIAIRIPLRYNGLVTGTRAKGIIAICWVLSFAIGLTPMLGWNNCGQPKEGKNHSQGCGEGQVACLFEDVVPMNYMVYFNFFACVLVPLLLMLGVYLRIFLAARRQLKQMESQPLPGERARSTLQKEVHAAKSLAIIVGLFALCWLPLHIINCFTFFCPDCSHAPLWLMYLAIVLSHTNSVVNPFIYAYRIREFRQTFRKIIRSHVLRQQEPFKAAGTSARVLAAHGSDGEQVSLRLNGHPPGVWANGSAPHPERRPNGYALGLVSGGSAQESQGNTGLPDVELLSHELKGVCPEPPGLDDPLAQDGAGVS

| SMILES | inhibition [1] [%] | inhibition [2] [%] | inhibition (Adenosine receptor A2a) [%] | inhibition [3] [%] |
| --- | --- | --- | --- | --- |
| CC1=C(C(=O)OC(C)C)C(c2cccs2)n2c(nc3ccccc32)N1 (stereo not drawn) | 1 | 3 | 17 |  |
| CC1=C(C(=O)OC(C)C)C(c2ccoc2)n2c(nc3ccccc32)N1 (stereo not drawn) | 12 | 2 | 23 |  |
| CC1=C(C(=O)OC(C)C)C(c2ccsc2)n2c(nc3ccccc32)N1 (stereo not drawn) | 11 | 21 | 3 |  |
| CC1=C(C(=O)OCC(F)(F)F)[C@H](c2ccco2)n2c(nc3ccccc32)N1 | 12 | 8 | 3 |  |
| CC1=C(C(=O)O[C@@H](C)C(F)(F)F)[C@H](c2ccco2)n2c(nc3ccccc32)N1 | 7 | 9 | 19 | 35 |
| CC1=C(C(=O)O[C@H](C)C(F)(F)F)[C@H](c2ccco2)n2c(nc3ccccc32)N1 | 2 | 1 | 2 | 18 |
| CCOC(=O)C1=C(C(F)(F)F)Nc2nc3ccccc3n2[C@H]1c1ccoc1 | 10 | 3 | 17 |  |
| CCOC(=O)C1=C(C)Nc2nc3ccccc3n2C1c1ccco1 (stereo not drawn) | 5 | 1 | 14 |  |
| CCOC(=O)C1=C(C)Nc2nc3ccccc3n2C1c1cccs1 (stereo not drawn) | 8 | 1 | 16 |  |
| CCOC(=O)C1=C(C)Nc2nc3ccccc3n2C1c1ccoc1 (stereo not drawn) | 7 | 1 | 11 |  |
| CCOC(=O)C1=C(C)Nc2nc3ccccc3n2C1c1ccsc1 (stereo not drawn) | 3 | 2 | 10 |  |
| CC(C)OC(=O)C1=C(C(F)(F)F)NC(=O)NC1c1cccs1 (racemic) | 8 | 7 | 13 | 19 |
| CC(C)OC(=O)C1=C(C(F)(F)F)NC(=O)NC1c1ccoc1 (racemic) | 27 | 1 | 21 | 37 |
| CC(C)OC(=O)C1=C(C(F)(F)F)Nc2nc3ccccc3n2C1c1ccco1 (racemic) | 3 | 5 | 10 | 39 |
| CC(C)OC(=O)C1=C(C(F)(F)F)Nc2nc3ccccc3n2C1c1cccs1 (racemic) | 4 | 1 | 1 | 17 |
| CC(C)OC(=O)C1=C(C(F)(F)F)Nc2nc3ccccc3n2C1c1ccsc1 (racemic) | 10 | 2 | 3 | 48 |
| CC1=C(C(=O)OC(C(F)(F)F)C(F)(F)F)C(c2ccco2)NC(=O)N1 (racemic) | 6 | 2 | 1 | 1 |
| CC1=C(C(=O)OC(C(F)(F)F)C(F)(F)F)C(c2ccco2)n2c(nc3ccccc32)N1 (racemic) | 16 | 24 | 2 | 16 |
| CC1=C(C(=O)OC(C(F)(F)F)C(F)(F)F)C(c2cccs2)NC(=O)N1 (racemic) | 9 | 1 | 1 | 1 |
| CC1=C(C(=O)OC(C(F)(F)F)C(F)(F)F)C(c2cccs2)n2c(nc3ccccc32)N1 (racemic) | 11 | 19 | 10 | 7 |

| SMILES | inhibition [1] [%] | inhibition [2] [%] | inhibition (Adenosine receptor A2a) [%] | inhibition [3] [%] |
| --- | --- | --- | --- | --- |
| CC1=C(C(=O)OC(C(F)(F)F)C(F)(F)F)C(c2ccoc2)NC(=O)N1 (racemic) | 7 | 1 | 22 | 2 |
| CC1=C(C(=O)OC(C(F)(F)F)C(F)(F)F)C(c2ccoc2)n2c(nc3ccccc32)N1 (racemic) | 24 | 6 | 10 | 21 |
| CC1=C(C(=O)OC(C(F)(F)F)C(F)(F)F)C(c2ccsc2)NC(=O)N1 (racemic) | 17 | 8 | 1 | 1 |
| CC1=C(C(=O)OC(C(F)(F)F)C(F)(F)F)C(c2ccsc2)n2c(nc3ccccc32)N1 (racemic) | 3 | 1 | 15 | 1 |
| CC1=C(C(=O)OC(C)C(F)(F)F)C(c2cccs2)n2c(nc3ccccc32)N1 (racemic) | 34 | 4 | 2 | 27 |
| CC1=C(C(=O)OC(C)C(F)(F)F)C(c2ccsc2)n2c(nc3ccccc32)N1 (racemic) | 2 | 2 | 24 | 47 |
| CC1=C(C(=O)OCC(F)(F)F)C(c2cccs2)NC(=O)N1 (racemic) | 3 | 1 | 3 | 1 |
| CC1=C(C(=O)OCC(F)(F)F)C(c2cccs2)n2c(nc3ccccc32)N1 (racemic) | 1 | 2 | 7 | 6 |
| CC1=C(C(=O)OCC(F)(F)F)C(c2ccsc2)NC(=O)N1 (racemic) | 2 | 1 | 1 | 24 |
| CC1=C(C(=O)OCC(F)(F)F)C(c2ccsc2)n2c(nc3ccccc32)N1 (racemic) | 7 | 2 | 17 | 30 |
| CCOC(=O)C1=C(C(F)(F)F)NC(=O)NC1c1cccs1 (racemic) | 28 | 1 | 20 | 16 |
| CCOC(=O)C1=C(C(F)(F)F)Nc2nc3ccccc3n2C1c1cccs1 (racemic) | 7 | 19 | 4 | 38 |
| CC1=C(C(=O)OC(C)C(F)(F)F)C(c2ccco2)NC(=O)N1 (stereo in doubt; 14i-D1) | 1 | 11 | 3 |  |
| CC1=C(C(=O)OC(C)C(F)(F)F)C(c2ccco2)NC(=O)N1 (stereo in doubt; 14i-D2) | 1 | 7 | 1 |  |
| CC1=C(C(=O)OC(C)C(F)(F)F)C(c2ccoc2)NC(=O)N1 (stereo in doubt; 14j-D1) | 10 | 12 | 1 |  |
| CC1=C(C(=O)OC(C)C(F)(F)F)C(c2ccoc2)NC(=O)N1 (stereo in doubt; 14j-D2) | 1 | 5 | 1 | 23 |
| CC1=C(C(=O)OC(C)C(F)(F)F)C(c2cccs2)NC(=O)N1 (stereo in doubt; 14k-D1) | 12 | 3 | 2 | 4 |
| CC1=C(C(=O)OC(C)C(F)(F)F)C(c2cccs2)NC(=O)N1 (stereo in doubt; 14k-D2) | 16 | 3 | 1 | 1 |
| CC1=C(C(=O)OC(C)C(F)(F)F)C(c2ccsc2)NC(=O)N1 (stereo in doubt; 14l-D1) | 3 | 2 | 2 |  |
